Measured values from US6048854A, “2,3-diaminopropionic acid derivative” (Sumitomo Pharmaceuticals Company, Limited, priority 1993, dated 2000).
Where two headings read alike, the source gives them in different places.

Tests used:
[1] = tested on: human fibronectin; experiment: Binding assay of platelet to adhesive protein: fibronectin (receptor binding inhibition); settings: Table 4; fixed activated human platelets, 37° C., 60 minutes
Procedure: (§1) The blood was taken out from the elbow vein of a normal volunteer, and mixed with 1/10 volume of 3.8% sodium citrate. The blood was centrifuged at 1,000 rpm (150 g) for 10 minutes, and the supernatant is collected as a platelet rich plasma (PRP). The precipitates are centrifuged at 11,000 rpm (6000 g) for two minutes, and the supernatant is collected as a platelet poor plasma (PPP). To PRP is added prostaglandin I2 (PGl2) at a final concentration of 50 ng/ml, and the mixture was centrifuged at 11000 rpm for two minutes to give human platelet. The platelet was activated by washing with 3.8 mM HEPES-buffer (pH 7.4, Tyrode-HEPES buffer) containing 0.14 M sodium chloride, 2.7 mM potassium chloride, 3.7 mM sodium dihydrogen phosphate, 0.98 mM magnesium chloride, 1 mg/ml glucose, 50 ng/ml PGl2 and 0.35% bovine serum albumin (BSA), adding thereto 5 μM epinephrine, and 30 μM ADP (adenosine diphosphate), followed by being allowed to stand at room temperature for five minutes. To the activated platelet was added 0.05% p-formaldehyde, and the mixture was allowed to stand at room temperature for 30 minutes to give the fixed platelet, which was suspended in Tyrode-HEPES buffer to give a platelet suspension of a concentration of 2×10^8 ml^-1.
(§2) Human fibrinogen from which fibronectin was previously removed by passing through gelatin-cepharose, human fibronectin or human vitronectin was diluted with 0.1 M aqueous sodium hydrogen carbonate solution to a concentration of 5 μg/ml, and the protein solution is put into a 96-well microplate at a volume of 200 μl/well. The microplate was allowed to stand at 4° C. overnight. The plate was washed with phosphate buffered saline (PBS), and subjected to blocking with 3% BSA at 37° C. for one hour. To the plate were added a platelet suspension (final concentration, 10^8 ml^-1) and a test compound of various concentrations (total volume, 200 μl/well), and the plate was incubated at 37° C. for 60 minutes. The plate was treated with 1000-fold diluted enzyme (HRP)-labelled anti-mouse IgG polyclonal antibody at 37° C. for 60 minutes, and thereto was added HRP chromogenic substrate (0.1 M phosphate buffer containing 0.4 mg/ml O-phenylenediamine,0.01% hydrogen peroxide, 0.1 M citric acid, pH 5), and reacted at room temperature for 15 minutes. The reaction was terminated by adding thereto 4.5 M sulfuric acid at a volume of 25 μl/well, and the absorbance at 490 nm was measured.

[2] = target: T1, human fibrinogen (Homo sapiens, UniProt P05106+P08514); experiment: Binding assay of platelet to adhesive protein: fibrinogen (receptor binding inhibition); settings: Table 4; fixed activated human platelets, 37° C., 60 minutes
T1 construct: centrifuged at 11000 rpm for two minutes to give human platelet; from tissue
Procedure: as §1, §2

[3] = tested on: human vitronectin; experiment: Binding assay of platelet to adhesive protein: vitronectin (receptor binding inhibition); settings: Table 4; fixed activated human platelets, 37° C., 60 minutes; read-out: receptor binding inhibition (IC50), Bitronectin
Procedure: as §1, §2

[4] = tested on: platelet aggregation; experiment: Platelet aggregation inhibitory activity (ex vivo) after oral administration; assay type: in vivo; settings: Cavia porcellus, guinea pig, oral 0.1 mg/kg, ADP 10 μg/ml
Procedure: A canula for collecting blood was inserted into the left common carotid artery of a guinea pig which was anesthetized with pentobarbital (30 mg/kg, i.p.). The blood (1 ml) was taken with a syringe containing 1/10 volume of 3.8% sodium citrate (Kettin-citrate, manufactured by Kokusai Shiyaku Ltd.), and the platelet aggregation ability thereof was measured (as a value before administration). Then, a test compound was orally administered to the guinea pig at a dose of 0.1 mg/kg in a volume of 5 ml/kg, and the blood was collected periodically likewise at 0.5, 1, 2, 4 and 6 hours after the administration of the test compound, and the platelet aggregation ability thereof was measured.
The determination of the platelet aggregation ability was carried out by turbidimetry using a Hematracer (Niko Bioscience) as follows. That is, the blood was centrifuged at 4500 rpm at room temperature for 10 seconds, and the supernatant was considered as platelet rich plasma (PRP), and the precipitate was centrifuged at 11000 rpm for two minutes and its supernatant was considered as platelet poor plasma (PPP), and the photo-transmittance of the PRP and the PPP was adjusted to 0%, and 100%, respectively. A cubet containing PRP (200 μl) was inserted to a measurement well, and […] at 1000 rpm at 37° C. for two minutes, and thereto was added a platelet aggregator; ADP (adenosine diphosphate, Sigma Ltd., 20 μl, final concentration; 10 μg/ml), and the maximum aggregation rate was measured. From the maximum aggregation rate before the administration of the test compound (MAR control) and the maximum aggregation rate after the administration of the test compound (MAR sample), the platelet aggregation inhibitory rate of each test compound was estimated according to the following equation.
Inhibitory rate (%)=(1-(MAR sample/MAR control))×100
The periodical change in the platelet aggregation inhibitory rate of each test compound at a dose of 0.1 mg/kg of oral administration is shown in Table 5.

[5] = tested on: platelet aggregation; experiment: Platelet aggregation inhibitory activity (ADP-induced, human platelet rich plasma); assay type: cell-based; settings: Homo sapiens, Table 3, same manner as Example 17
Method in brief: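 Citrated human platelet-rich plasma […] was stirred with test compound for 2 min at 37 °C. Aggregation was then induced with ADP at 3 μg/ml final and monitored by nephelometry. IC50 is the concentration giving 50% inhibition of aggregation.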

[6] = 0.5 hr, read-out: platelet aggregation inhibitory rate (%), 0.5 hr
[7] = 1 hr, read-out: platelet aggregation inhibitory rate (%), 1 hr
[8] = 2 hrs, read-out: platelet aggregation inhibitory rate (%), 2 hrs
[9] = 4 hrs, read-out: platelet aggregation inhibitory rate (%), 4 hrs
[10] = 6 hrs, read-out: platelet aggregation inhibitory rate (%), 6 hrs

T1 sequence (P08514 32-887 limits assumed): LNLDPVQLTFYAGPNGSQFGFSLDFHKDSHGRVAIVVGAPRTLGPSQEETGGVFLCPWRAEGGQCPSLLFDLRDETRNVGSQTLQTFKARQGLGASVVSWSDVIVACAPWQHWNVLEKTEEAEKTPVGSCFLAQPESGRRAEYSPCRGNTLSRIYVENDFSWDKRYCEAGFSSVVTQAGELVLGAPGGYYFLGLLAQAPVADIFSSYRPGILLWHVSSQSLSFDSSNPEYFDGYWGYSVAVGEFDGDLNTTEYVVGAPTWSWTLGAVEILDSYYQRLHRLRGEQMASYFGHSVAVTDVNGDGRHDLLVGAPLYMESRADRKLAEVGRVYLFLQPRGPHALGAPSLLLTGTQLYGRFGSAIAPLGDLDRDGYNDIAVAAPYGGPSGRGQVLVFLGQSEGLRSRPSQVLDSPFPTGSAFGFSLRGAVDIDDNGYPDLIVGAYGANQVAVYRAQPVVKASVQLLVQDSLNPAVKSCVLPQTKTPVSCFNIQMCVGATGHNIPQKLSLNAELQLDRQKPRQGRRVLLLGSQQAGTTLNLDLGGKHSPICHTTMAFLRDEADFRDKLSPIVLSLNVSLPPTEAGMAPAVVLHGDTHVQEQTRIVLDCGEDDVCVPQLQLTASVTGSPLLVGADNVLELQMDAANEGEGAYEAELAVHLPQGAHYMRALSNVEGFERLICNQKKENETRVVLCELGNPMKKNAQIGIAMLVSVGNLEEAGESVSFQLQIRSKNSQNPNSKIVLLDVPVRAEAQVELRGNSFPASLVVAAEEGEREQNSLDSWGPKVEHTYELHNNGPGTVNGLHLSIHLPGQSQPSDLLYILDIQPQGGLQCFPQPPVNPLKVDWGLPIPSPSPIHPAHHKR
T1 sequence (P08514 891-1039 limits assumed): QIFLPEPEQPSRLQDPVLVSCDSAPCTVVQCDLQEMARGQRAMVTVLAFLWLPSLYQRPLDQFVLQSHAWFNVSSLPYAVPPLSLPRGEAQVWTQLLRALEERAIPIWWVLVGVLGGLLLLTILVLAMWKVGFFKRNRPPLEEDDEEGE
T1 sequence (P05106 27-788): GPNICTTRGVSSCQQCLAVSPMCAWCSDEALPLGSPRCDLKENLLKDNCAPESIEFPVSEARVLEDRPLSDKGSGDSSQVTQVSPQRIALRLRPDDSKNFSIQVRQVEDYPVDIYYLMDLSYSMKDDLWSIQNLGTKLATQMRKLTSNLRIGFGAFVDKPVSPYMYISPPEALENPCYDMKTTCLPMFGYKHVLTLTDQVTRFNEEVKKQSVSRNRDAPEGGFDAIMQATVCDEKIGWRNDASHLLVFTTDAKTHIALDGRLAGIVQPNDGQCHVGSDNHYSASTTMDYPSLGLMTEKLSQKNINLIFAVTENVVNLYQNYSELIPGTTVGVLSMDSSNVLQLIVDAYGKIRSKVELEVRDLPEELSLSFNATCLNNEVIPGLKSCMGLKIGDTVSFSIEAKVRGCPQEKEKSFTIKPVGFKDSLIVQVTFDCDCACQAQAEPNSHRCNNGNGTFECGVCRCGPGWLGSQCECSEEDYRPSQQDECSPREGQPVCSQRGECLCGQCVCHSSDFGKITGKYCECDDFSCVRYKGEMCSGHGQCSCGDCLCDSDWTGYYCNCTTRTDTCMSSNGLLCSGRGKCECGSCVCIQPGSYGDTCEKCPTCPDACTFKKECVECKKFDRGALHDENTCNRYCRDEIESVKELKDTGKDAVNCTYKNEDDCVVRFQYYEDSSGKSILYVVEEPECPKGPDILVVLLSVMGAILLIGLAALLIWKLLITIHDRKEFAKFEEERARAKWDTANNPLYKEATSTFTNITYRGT

SMILES | IC50 [1] [nM] | IC50 [2] [nM] | IC50 [3] [nM] | inhibition in vivo at 0.1 mg/kg [4, 6] [%] | inhibition in vivo at 0.1 mg/kg [4, 7] [%] | inhibition in vivo at 0.1 mg/kg [4, 8] [%] | inhibition in vivo at 0.1 mg/kg [4, 9] [%] | inhibition in vivo at 0.1 mg/kg [4, 10] [%] | IC50 [5] [nM]
Cc1ccc(S(=O)(=O)N[C@@H](CNC(=O)CCNC(=O)c2ccc(C(=N)N)cc2)C(=O)O)cc1 [Example 76, (2S)-3-(3-(4-amidinobenzoylamino)propanoylamino)-2-(4-methyl)benzenesulfonylaminopropanoic Acid] | 510 | 6.3 | 540 | 100 | 100 | 100 | 100 | 100 | 17
N=C(N)c1ccc(C(=O)NCCC(=O)NC[C@H](NS(=O)(=O)c2ccccc2[N+](=O)[O-])C(=O)O)cc1 [Example 77, (2S)-3-(3-(4-amidinobenzoylamino)propanoylamino)-2-(2-nitro)benzenesulfonylaminopropanoic Acid] | 54 | 6.7 | 670 | 100 | 100 | 100 | 100 | 97 | 65
N=C(N)c1ccc(C(=O)NCCC(=O)NC[C@H](NS(=O)(=O)c2ccc(F)cc2)C(=O)O)cc1 [Example 78, (2S)-3-(3-(4-amidinobenzoylamino)propanoylamino)-2-(4-fluoro)benzenesulfonylaminopropanoic Acid] | 25 | 9 | 160 | 99 | 100 | 100 | 100 | 100 | 16
CCc1ccc(S(=O)(=O)N[C@@H](CNC(=O)CCNC(=O)c2ccc(C(=N)N)cc2)C(=O)O)cc1 [Example 80, (2S)-3-(3-(4-amidinobenzoylamino)propanoylamino)-2-(4-ethyl)benzenesulfonylaminopropanoic Acid] | 390 | 10 | 4900 | 100 | 100 | 75 | 79 | 74 | 17
N=C(N)c1ccc(OCCCC(=O)NC[C@H](NS(=O)(=O)c2ccccc2C(F)(F)F)C(=O)O)cc1 [Example 82, (2S)-3-(4-(4-amidinophenoxy)butanoylamino)-2-(2-trifluoromethyl)benzenesulfonylaminopropanoic Acid] | 19 | 1.2 | 270 | 81 | 66 | 54 | 52 | 51 | 31
CCc1ccc(S(=O)(=O)N[C@@H](CNC(=O)CCCOc2ccc(C(=N)N)cc2)C(=O)O)cc1 [Example 83, (2S)-3-(4-(4-amidinophenoxy)butanoylamino)-2-(4-ethyl)benzenesulfonylaminopropanoic Acid] | 770 | 22 | 7800 | 50 | 47 | 48 | 32 | 41 | 30
N=C(N)c1ccc(OCCCCC(=O)NC[C@H](NS(=O)(=O)c2ccccc2[N+](=O)[O-])C(=O)O)cc1 [Example 85, (2S)-3-(5-(4-amidinophenoxy)pentanoylamino)-2-(2-nitro)benzenesulfonylaminopropanoic Acid] | 20 | 4.8 | 270 | 36 | 41 | 44 | 31 | 17 | 26
Cc1cc(C)c(S(=O)(=O)N[C@@H](CNC(=O)CCCCOc2ccc(C(=N)N)cc2)C(=O)O)c(C)c1 [Example 86, (2S)-3-(5-(4-amidinophenoxy)pentanoylamino)-2-(2,4,6-trimethyl)benzenesulfonylaminopropanoic Acid] | 120 | 1.1 | 500 | 46 | 0 | 0 | 0 | 0 | 56
Cc1cc(C)c(S(=O)(=O)N[C@@H](CNC(=O)CCCCc2ccc(C(=N)N)cc2)C(=O)O)c(C)c1 [Example 87, (2S)-3-(5-(4-amidinophenyl)pentanoylamino)-2-(2,4,6-trimethyl)benzenesulfonylaminopropanoic Acid] | 210 | 12 | 2700 | 100 | 100 | 100 | 100 | 80 | 25
N=C(N)c1ccc(CCCCCC(=O)NC[C@H](NS(=O)(=O)c2ccccc2)C(=O)O)cc1 [Example 91, (2S)-3-(6-(4-amidinophenyl)hexanoylamino)-2-benzenesulfonylaminopropanoic Acid] | 50 | 4.7 | 1300 | 51 | 41 | 31 | 14 | 39 | 23
Cc1cc(C)c(S(=O)(=O)N[C@@H](CNC(=O)CCCCCc2ccc(C(=N)N)cc2)C(=O)O)c(C)c1 [Example 92, (2S)-3-(6-(4-amidinophenyl)hexanoylamino)-2-(2,4,6-trimethyl)benzenesulfonylaminopropanoic Acid] | 24 | 3.9 | 500 | 68 | 34 | 24 | 47 | 0 | 37
